According to ChEMBL document CHEMBL1201862, “PubChem BioAssay data set” (2004):
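Each compound was tested at five concentrations against cells in 96-well plates for 48 hours. Here, GI50 denotes the concentration required for 50% inhibition of growth.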 Activity calls are given as the source filed them. Cut-off read from the data, not from the text of the source: active = GI50 up to about 1.1 µM and inactive = higher.

Key:
Experiment in all cases: NCI anticancer screen, dose series, 48 h
786-0 = test system: 786-0
A549 = test system: A549
CAKI-1 = test system: CAKI-1
DU-145 = test system: DU-145
HT-29 = test system: HT-29
KM12 = test system: KM12
MDA-MB-435 = test system: MDA-MB-435
MOLT-4 = test system: MOLT-4
Malme-3M = test system: Malme-3M
NCI/ADR-RES = test system: NCI/ADR-RES
OVCAR-3 = test system: OVCAR-3
OVCAR-4 = test system: OVCAR-4
OVCAR-5 = test system: OVCAR-5
SF-268 = test system: SF-268
SF-295 = test system: SF-295
SK-OV-3 = test system: SK-OV-3
SNB-19 = test system: SNB-19
SNB-75 = test system: SNB-75
SR = test system: SR
U-251 = test system: U-251

| SMILES | GI50 (786-0) | GI50 (A549) | GI50 (CAKI-1) | GI50 (DU-145) | GI50 (HT-29) | GI50 (KM12) | GI50 (MDA-MB-435) | GI50 (MOLT-4) | GI50 (Malme-3M) | GI50 (NCI/ADR-RES) | GI50 (OVCAR-3) | GI50 (OVCAR-4) | GI50 (OVCAR-5) | GI50 (SF-268) | GI50 (SF-295) | GI50 (SK-OV-3) | GI50 (SNB-19) | GI50 (SNB-75) | GI50 (SR) | GI50 (U-251) |
| --- | --- | --- | --- | --- | --- | --- | --- | --- | --- | --- | --- | --- | --- | --- | --- | --- | --- | --- | --- | --- |
| CCS(=O)(=O)c1c2cc(OC)ccc2nc2ccc(OC)cc12 | > 100 µM (inactive) | > 100 µM (inactive) | > 100 µM (inactive) | > 100 µM (inactive) | > 100 µM (inactive) | > 100 µM (inactive) | > 100 µM (inactive) | > 100 µM (inactive) | > 100 µM (inactive) | > 100 µM (inactive) | > 100 µM (inactive) | > 100 µM (inactive) | > 100 µM (inactive) | > 100 µM (inactive) | > 100 µM (inactive) | > 100 µM (inactive) | > 100 µM (inactive) | > 100 µM (inactive) | > 100 µM (inactive) | > 100 µM (inactive) |
| CC1(C)C(=O)N(O)C(C)(C)N1O | > 10 µM (inactive) | > 10 µM (inactive) | > 10 µM (inactive) | > 10 µM (inactive) | > 10 µM (inactive) | > 10 µM (inactive) | > 10 µM (inactive) | > 10 µM (inactive) | > 10 µM (inactive) | > 10 µM (inactive) | > 10 µM (inactive) | > 10 µM (inactive) | > 10 µM (inactive) | > 10 µM (inactive) | > 10 µM (inactive) | > 10 µM (inactive) | > 10 µM (inactive) | > 10 µM (inactive) | > 10 µM (inactive) | > 10 µM (inactive) |
| O=Nc1c(-c2cccc([N+](=O)[O-])c2)nc2cnccn12 | 16 µM (inactive) | 29.5 µM (inactive) | 17 µM (inactive) | 16.4 µM (inactive) | 14.3 µM (inactive) | 30.9 µM (inactive) | 20.1 µM (inactive) | 3.92 µM (inactive) | 22.2 µM (inactive) | 21.4 µM (inactive) | 16.8 µM (inactive) | 17.7 µM (inactive) | 20.1 µM (inactive) | 25.9 µM (inactive) | 43.4 µM (inactive) | 68.7 µM (inactive) | > 100 µM (inactive) | 35.2 µM (inactive) | 2.2 µM (inactive) | 20.4 µM (inactive) |
| NC(=O)c1cccc(/N=c2\oc3ccc(Br)cc3cc2-c2nc3ccccc3[nH]2)c1 | 14.5 µM (inactive) | 13.1 µM (inactive) | 18 µM (inactive) | 15.5 µM (inactive) | 15.8 µM (inactive) | 18.5 µM (inactive) | 15.1 µM (inactive) | 12.5 µM (inactive) | 22.5 µM (inactive) | 12.1 µM (inactive) | 16.2 µM (inactive) | 18.8 µM (inactive) | 16.3 µM (inactive) | 15.1 µM (inactive) | 15.8 µM (inactive) | 16.4 µM (inactive) | 14.8 µM (inactive) | 1.47 µM (inactive) | 5.73 µM (inactive) | 13.2 µM (inactive) |
| O=C1CC(NCc2ccccc2)c2c(Cl)sc(Cl)c21 (stereo not given) | 17.1 µM (inactive) | 33.3 µM (inactive) | 23.2 µM (inactive) | 35.8 µM (inactive) | 28.2 µM (inactive) | 29.9 µM (inactive) | 24.7 µM (inactive) | 4.23 µM (inactive) | 18.5 µM (inactive) | 28.1 µM (inactive) | 20 µM (inactive) | 28.4 µM (inactive) | 39.8 µM (inactive) | 16.3 µM (inactive) | 38.7 µM (inactive) | > 74 µM (inactive) | 33.7 µM (inactive) | 29.8 µM (inactive) | 3.2 µM (inactive) | 18.3 µM (inactive) |
| CN(C)CCNc1ccc2c(=O)n(CCN(C)C)c(=O)n3c4ccc([N+](=O)[O-])cc4c(=O)c1c23 | 0.294 µM (active) | 0.184 µM (active) | 0.498 µM (active) | 0.267 µM (active) | 0.0946 µM (active) | 0.518 µM (active) | 0.49 µM (active) | < 0.0141 µM (active) | 0.344 µM (active) | 0.251 µM (active) | 0.27 µM (active) | 0.301 µM (active) | 0.532 µM (active) | 0.334 µM (active) | 0.359 µM (active) | 0.76 µM (active) | 0.452 µM (active) | 0.293 µM (active) | 0.0815 µM (active) | 0.34 µM (active) |
